Laboratory results from patent publication US10392422B2, “Macrocyclic broad spectrum antibiotics” (priority 2014, dated 2019).
Converted amounts (≈) assume the structure as drawn. Where two headings read alike, the source gives them in different places.

Legend:
Experiment in all cases: MIC, broth micro-dilution technique (CLSI)
[1] = system: Methicillin Resistant Staphylococcus aureus strain USA 300 (NRS384); format: cell-based; conditions: Staphylococcus aureus, 22 h, read-out: MIC (μg/mL) S. aureus
Method in brief: (§1)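 Cation-adjusted MHB + 0.002% Tween-80; 10-point 2-fold series starting 64 μg/ml (modified protocol: 4 μg/mL). Final inoculum OD600 0.0005; 35° C, 22 h. MIC per CLSI M07-A8 broth microdilution.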

[2] = system: Escherichia coli MC4100 harboring the IMP4213; format: cell-based; conditions: Escherichia coli, 22 h, 35° C., 22 hours
Method in brief: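 CLSI broth microdilution in cation-adjusted Mueller Hinton broth with 0.002% v/v Tween-80. Compounds were serially 2-fold diluted over 10 concentrations from 64 μg/ml, or from 4 μg/mL in a modified protocol; inoculum at final OD600 0.0005, incubated 35° C for 22 hours.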

[3] = system: MRSA COL (NRS100); format: cell-based, Staphylococcus aureus; conditions: Staphylococcus aureus, 22 h, read-out: MIC (μg/mL) (COL)
Method in brief: as §1

[4] = read-out: MIC (μg/mL) E. coli, Table 2 modified protocol: serial 2-fold dilutions starting from 4 μg/mL
[5] = read-out: MIC (μg/mL) E. coli, Table 1 protocol: serial 2-fold dilutions starting from 64 μg/ml

C[C@@H]1NC(=O)[C@@H](N(C)C(=O)[C@H](CCCCN)NC(=O)Cc2ccc(-c3ccc(Cl)cc3)cc2)c2ccc(OCCN)c(c2)-c2cc(ccc2OCCN)C[C@@H](C(=O)O)NC1=O [Compound 286]
MIC [1]: 4 µg/mL (≈ 4.67 µM) | MIC [2, 4]: 4 µg/mL (≈ 4.67 µM) | MIC [3]: 1.5 µg/mL (≈ 1.75 µM)

C[C@@H]1NC(=O)[C@@H](N(C)C(=O)[C@H](CCCCN)NC(=O)c2ccc(-c3ccc(-c4ccccc4)cc3)cc2)c2ccc(OCCN)c(c2)-c2cc(ccc2OCCN)C[C@@H](C(=O)O)NC1=O [Compound 287]
MIC [1]: 0.25 µg/mL (≈ 0.283 µM) | MIC [2, 4]: 0.047 µg/mL (≈ 0.0532 µM) | MIC [3]: 0.094 µg/mL (≈ 0.106 µM)

CCCCc1ccc(-c2cccc(C(=O)N[C@@H](CCCCN)C(=O)N(C)[C@@H]3C(=O)N[C@@H](C)C(=O)N[C@H](C(=O)O)Cc4ccc(OCCN)c(c4)-c4cc3ccc4OCCN)c2)cc1 [Compound 288]
MIC [1]: 0.5 µg/mL (≈ 0.579 µM) | MIC [2, 4]: 0.13 µg/mL (≈ 0.15 µM) | MIC [3]: 0.25 µg/mL (≈ 0.289 µM)

C[C@@H]1NC(=O)[C@@H](N(C)C(=O)[C@H](CCCCN)NC(=O)c2ccc(-c3ccc(Cl)cc3)cc2)c2ccc(OCCN)c(c2)-c2cc(ccc2OCCN)C[C@@H](C(=O)O)NC1=O [Compound 289]
MIC [1]: 2 µg/mL (≈ 2.37 µM) | MIC [2, 5]: 0.5 µg/mL (≈ 0.594 µM) | MIC [3]: 0.5 µg/mL (≈ 0.594 µM)

C[C@@H]1NC(=O)[C@@H](N(C)C(=O)[C@H](CCCCN)NC(=O)c2ccc(-c3ccc(Cl)cc3)cc2)c2cc(C#N)c(O)c(c2)-c2cc(ccc2O)C[C@@H](C(=O)O)NC1=O [Compound 290]
MIC [1]: 64 µg/mL (≈ 81.9 µM) | MIC [2, 5]: 32 µg/mL (≈ 41 µM) | MIC [3]: 32 µg/mL (≈ 41 µM)

CCCCCCCCCCCCCC(=O)N(C)[C@@H]1C(=O)N[C@@H](C)C(=O)N[C@H](C(=O)O)Cc2ccc(OCCN)c(c2)-c2cc1ccc2OCCN [Compound 291]
MIC [1]: 8 µg/mL (≈ 11.3 µM) | MIC [2, 5]: 8 µg/mL (≈ 11.3 µM) | MIC [3]: 4 µg/mL (≈ 5.63 µM)

CCCCCCCCCCCCCC(=O)N[C@@H](CCCCN)C(=O)N(C)[C@@H]1C(=O)N[C@@H](C)C(=O)N[C@H](C(=O)O)Cc2ccc(OCCN)c(c2)-c2cc1ccc2OCCN [Compound 293]
MIC [1]: 0.063 µg/mL (≈ 0.0752 µM) | MIC [2, 5]: 0.063 µg/mL (≈ 0.0752 µM) | MIC [3]: 0.063 µg/mL (≈ 0.0752 µM)

CCCCc1ccc(-c2ccc(C(=O)N[C@@H](CCCCN)C(=O)N(C)[C@@H]3C(=O)N[C@@H](C)C(=O)N[C@H](C(=O)O)Cc4ccc(OCCN)c(c4)-c4cc3ccc4OCCN)cc2)cc1 [Compound 294]
MIC [1]: 0.15 µg/mL (≈ 0.174 µM) | MIC [2, 5]: 0.063 µg/mL (≈ 0.0729 µM) | MIC [3]: 0.063 µg/mL (≈ 0.0729 µM)

CCCCc1ccc(-c2ccc(C(=O)N[C@@H](CCCN)C(=O)N(C)[C@@H]3C(=O)N[C@@H](C)C(=O)N[C@H](C(=O)O)Cc4ccc(OCCN)c(c4)-c4cc3ccc4OCCN)cc2)cc1 [Compound 295]
MIC [1]: 0.19 µg/mL (≈ 0.224 µM) | MIC [2, 5]: 0.063 µg/mL (≈ 0.0741 µM) | MIC [3]: 0.063 µg/mL (≈ 0.0741 µM)

CCCCCCCCc1ccc(C(=O)N[C@@H](CCCN)C(=O)N(C)[C@@H]2C(=O)N[C@@H](C)C(=O)N[C@H](C(=O)O)Cc3ccc(OCCN)c(c3)-c3cc2ccc3OCCN)c(C)c1 [Compound 296]
MIC [1]: 0.063 µg/mL (≈ 0.0746 µM) | MIC [2, 5]: 0.063 µg/mL (≈ 0.0746 µM) | MIC [3]: 0.063 µg/mL (≈ 0.0746 µM)

CCCCCCCCc1ccc(C(=O)N[C@@H](CCCN)C(=O)N(C)[C@@H]2C(=O)N[C@@H](C)C(=O)N[C@H](C(=O)O)Cc3ccc(OCCN)c(c3)-c3cc2ccc3OCCN)c(F)c1 [Compound 297]
MIC [1]: 0.38 µg/mL (≈ 0.448 µM) | MIC [2, 5]: 0.063 µg/mL (≈ 0.0743 µM) | MIC [3]: 0.063 µg/mL (≈ 0.0743 µM)

CCCCCCCCCCCCCC(=O)N[C@@H](CN)C(=O)N(C)[C@@H]1C(=O)N[C@@H](C)C(=O)N[C@H](C(=O)O)Cc2ccc(OCCN)c(c2)-c2cc1ccc2OCCN [Compound 298]
MIC [1]: 0.38 µg/mL (≈ 0.477 µM) | MIC [2, 4]: 0.031 µg/mL (≈ 0.0389 µM) | MIC [3]: 0.063 µg/mL (≈ 0.0791 µM)

CCCCCCCCc1ccc(C(=O)N[C@@H](CN)C(=O)N(C)[C@@H]2C(=O)N[C@@H](C)C(=O)N[C@H](C(=O)O)Cc3ccc(OCCN)c(c3)-c3cc2ccc3OCCN)cc1 [Compound 300]
MIC [1]: 0.5 µg/mL (≈ 0.623 µM) | MIC [2, 4]: 0.023 µg/mL (≈ 0.0287 µM) | MIC [3]: 0.13 µg/mL (≈ 0.162 µM)

CCCCCCCCc1ccc(C(=O)N[C@@H](CCN)C(=O)N(C)[C@@H]2C(=O)N[C@@H](C)C(=O)N[C@H](C(=O)O)Cc3ccc(OCCN)c(c3)-c3cc2ccc3OCCN)c(C)c1 [Compound 302]
MIC [1]: 0.11 µg/mL (≈ 0.133 µM) | MIC [2, 4]: 0.0088 µg/mL (≈ 0.0106 µM) | MIC [3]: 0.039 µg/mL (≈ 0.047 µM)

CCCCCCCCCCCCCC(=O)N[C@@H](CCCN)C(=O)N(C)[C@@H]1C(=O)N[C@@H](C)C(=O)N[C@H](C(=O)O)Cc2ccc(OCCN)c(c2)-c2cc1ccc2OCCN [Compound 303]
MIC [1]: 0.13 µg/mL (≈ 0.158 µM) | MIC [2, 4]: 0.023 µg/mL (≈ 0.0279 µM) | MIC [3]: 0.023 µg/mL (≈ 0.0279 µM)
